pIC50: −log10 of the molar value.
Tested on: SARS-CoV-2
Experiment: microbe, parasite or virus in culture
Conditions: Severe acute respiratory syndrome coronavirus 2, Vero C1008, 48 h; for IC50: read-out: pIC50 (converted)

Row | Structure (SMILES) | pIC50 | IC50 [µM]
1 | CCOC(=O)c1ccc(OCCC2CCN(c3ccc(C)nn3)CC2)cc1 | < 4.70 | > 20
2 | CCCCc1ncc(C=C(Cc2cccs2)C(=O)O)n1Cc1ccc(C(=O)O)cc1 | < 4.70 | > 20
3 | N#CC(c1ccc(F)cc1)c1c(Cl)cc(-n2ncc(=O)[nH]c2=O)cc1Cl (stereo unspecified) [LETRAZURIL] | < 4.70 | > 20
4 | COc1cc2c(cc1OC)[C@@H]1C(=O)c3ccc4c(c3O[C@@H]1CO2)CC(C(C)C)O4 (stereo partly specified) [DIHYDROROTENONE] | < 4.70 | > 20
5 | C[C@@H]1C[C@H]2[C@@H]3CCC4=CC(=O)C=C[C@]4(C)[C@@]3(Cl)[C@@H](O)C[C@]2(C)[C@@]1(OC(=O)c1ccco1)C(=O)CCl [MOMETASONE FUROATE] | < 4.70 | > 20
6 | CN(C)Cc1ccc(S(=O)(=O)n2ccc(/C=C/C(=O)NO)c2)cc1 [RESMINOSTAT] | < 4.70 | > 20
7 | CCN(CC)CC(=O)Nc1c(C)cc(C)cc1C [TRIMECAINE] | < 4.70 | > 20
8 | COc1ccc(Cl)cc1[C@]1(F)C(=O)Nc2cc(C(F)(F)F)ccc21 [FLINDOKALNER] | < 4.70 | > 20
9 | CNc1ncnc2c1ncn2[C@@H]1O[C@H](CO)[C@@H](O)[C@H]1O | < 4.70 | > 20
10 | Nc1ccccc1NC(=O)c1ccc(CNc2nccc(-c3cccnc3)n2)cc1 [MOCETINOSTAT] | < 4.70 | > 20
11 | COCCOCCOCCOCCOC(=O)OC[n+]1ccc(N/C(=N/CCCCCCOc2ccc(Cl)cc2)NC#N)cc1 | < 4.70 | > 20
12 | CNC(=O)c1cc(Oc2ccc(NC(=O)Nc3cc(C(C)(C)C)nn3-c3ccc4ncccc4c3)c(F)c2)ccn1 [REBASTINIB] | < 4.70 | > 20
13 | CC(=O)OCC(=O)[C@H]1CC[C@H]2[C@@H]3CCC4=CC(=O)CC[C@]4(C)[C@H]3CC[C@]12C [DESOXYCORTICOSTERONE ACETATE] | < 4.70 | > 20
14 | CCOC(N)=O | < 4.70 | > 20
15 | NC(=O)CC[C@H](NC(=O)Cc1ccccc1)C(=O)O | < 4.70 | > 20
16 | CC(C(=O)O)c1ccc2c(c1)Cc1cccnc1O2 (stereo unspecified) [PRANOPROFEN] | < 4.70 | > 20
17 | O=C(NC(Cc1cc(=O)[nH]c2ccccc12)C(=O)O)c1ccc(Cl)cc1 (stereo unspecified) [REBAMIPIDE] | < 4.70 | > 20
18 | COC(=O)N[C@H](C(=O)N1CCC[C@H]1c1ncc(-c2ccc(-c3ccc(-c4cnc([C@@H]5CC6(CN5C(=O)[C@@H](NC(=O)OC)C(C)C)OCCO6)[nH]4)cc3)cc2)[nH]1)C(C)C | < 4.70 | > 20
19 | CCC1(c2ccccc2)C(=O)N(COC)C(=O)N(COC)C1=O [ETEROBARB] | < 4.70 | > 20
20 | COc1ccccc1N1CCN(CCCNc2cc(=O)n(C)c(=O)n2C)CC1 | < 4.70 | > 20
21 | Clc1ccccc1C(c1ccccc1)(c1ccccc1)n1ccnc1 [CLOTRIMAZOLE] | < 4.70 | > 20
22 | CCCN[C@H]1CCc2nc(N)sc2C1 [PRAMIPEXOLE] | < 4.70 | > 20
23 | COc1ccccc1CNCCCCCCNCCCCCCCCNCCCCCCNCc1ccccc1OC [METHOCTRAMINE] | < 4.70 | > 20
24 | C[N+]1(C)[C@@H]2C[C@@H](OC(=O)C(O)(c3cccs3)c3cccs3)C[C@H]1[C@@H]1O[C@@H]12 [TIOTROPIUM] | < 4.70 | > 20
25 | COc1ccc(-c2ccc3ncc4c(c3c2)n(-c2ccc(N3CCNCC3)c(C(F)(F)F)c2)c(=O)n4C)cn1 [BGT-226 FREE BASE] | < 4.70 | > 20

Row | Structure (SMILES) | pIC50 | IC50 [µM]
26 | CCc1c(C(=O)c2cc(C)cc(C)c2)n(CC2CC=CC2)c(=O)[nH]c1=O | < 4.70 | > 20
27 | CCCc1c(OCCCCc2nnn[nH]2)ccc(C(C)=O)c1O [TOMELUKAST] | < 4.70 | > 20
28 | COc1cc(NS(=O)(=O)c2ccc(N)cc2)ncn1 [SULFAMONOMETHOXINE] | < 4.70 | > 20
29 | CC(=O)NC[C@H]1CN(c2ccc(N3CCOCC3)c(F)c2)C(=O)O1 [LINEZOLID] | < 4.70 | > 20
30 | NC(=O)c1ccc(I)c([N+](=O)[O-])c1 [INIPARIB] | < 4.70 | > 20
31 | CC(=C(CCO)SSCC1CCCO1)N(C=O)Cc1cnc(C)nc1N (stereo unspecified) | < 4.70 | > 20
32 | CN[C@@H](C)[C@H](O)c1ccccc1 [EPHEDRINE] | < 4.70 | > 20
33 | O=C(NC1CCNCC1)c1n[nH]cc1NC(=O)c1c(Cl)cccc1Cl [AT-7519] | < 4.70 | > 20
34 | CN1Cc2c(ccc3c2OCO3)C2C(O)Cc3cc4c(cc3C21)OCO4 (stereo not drawn) [CHELIDONINE (+)] | < 4.70 | > 20
35 | CC12CCC3C(CCC4(O)CC(O)CCC34C=O)C1(O)CCC2C1=CC(=O)OC1 (stereo unspecified) | < 4.70 | > 20
36 | COc1ccc2c3c1O[C@H]1[C@@H](O)C=C[C@@]4(O)[C@@H](C2)N(C)CC[C@]314 | < 4.70 | > 20
37 | OCCN1CCN(CCCN2c3ccccc3C=Cc3ccccc32)CC1 [OPIPRAMOL] | < 4.70 | > 20
38 | O=C(O)C(Cl)Cl [DICHLOROACETIC ACID] | < 4.70 | > 20
39 | Cc1cccc(C)c1NC(=O)C(C)N (stereo unspecified) [TOCAINIDE] | < 4.70 | > 20
40 | OCC(O)CN1CCN(c2ccccc2)CC1 (stereo unspecified) [DROPROPIZINE] | < 4.70 | > 20
41 | CC(C)[C@H](N)C(=O)N1CCC[C@H]1B(O)O [TALABOSTAT] | < 4.70 | > 20
42 | CCCCCCCCCCCCCCCCOCCCOP(=O)(O)CO[C@H](C)Cn1cnc2c(N)ncnc21 [TENOFOVIR EXALIDEX] | < 4.70 | > 20
43 | CC1(C)SC2C(/N=C/N3CCCCCC3)C(=O)N2C1C(=O)O (stereo unspecified) | < 4.70 | > 20
44 | Oc1ccc(/C=C/c2cc(O)cc(O)c2)cc1 [RESVERATROL] | < 4.70 | > 20
45 | COc1cc2c(cc1OC)[C@H]1CC(=O)[C@H](CC(C)C)CN1CC2 | < 4.70 | > 20
46 | Cc1nc(Nc2ncc(C(=O)Nc3c(C)cccc3Cl)s2)cc(N2CCN(CCO)CC2)n1 [DASATINIB] | < 4.70 | > 20
47 | CC(C)c1ccc2c(c1)CCC1C(C)(C(N)=O)CCCC21C (stereo unspecified) | < 4.70 | > 20
48 | COC(=S)NCCn1c([N+](=O)[O-])cnc1C [CARNIDAZOLE] | < 4.70 | > 20
49 | Oc1noc2c1CCNC2 [GABOXADOL] | < 4.70 | > 20
50 | COCCc1ccc(OCC(O)CNC(C)C)cc1 (stereo unspecified) [METOPROLOL] | < 4.70 | > 20

Row | Structure (SMILES) | pIC50 | IC50 [µM]
51 | CS(=O)(=O)CCNCc1ccc(-c2ccc3ncnc(Nc4ccc(OCc5cccc(F)c5)c(Cl)c4)c3c2)o1 [LAPATINIB] | < 4.70 | > 20
52 | C[C@H](Cc1cc2c(c(C(N)=O)c1)N(CCCO)CC2)NCCOc1ccccc1OCC(F)(F)F [SILODOSIN] | < 4.70 | > 20
53 | CNS(=O)(=O)Cc1ccc2[nH]cc(CCN(C)C)c2c1 | < 4.70 | > 20
54 | NCCCC(N)(C(=O)O)C(F)F (stereo unspecified) [EFLORNITHINE] | < 4.70 | > 20
55 | CC(O)C(=O)Nc1c(I)c(C(=O)NC(CO)CO)c(I)c(C(=O)NC(CO)CO)c1I (stereo unspecified) | < 4.70 | > 20
56 | CC[C@H]1OC(=O)C[C@@H](O)[C@H](C)[C@@H](O[C@@H]2O[C@H](C)[C@@H](O[C@H]3C[C@@](C)(O)[C@@H](O)[C@H](C)O3)[C@H](N(C)C)[C@H]2O)[C@@H](CC=O)C[C@@H](C)C(=O)/C=C\C(C)=C/[C@@H]1CO[C@@H]1O[C@H](C)[C@@H](O)[C@@H](OC)[C@H]1OC | < 4.70 | > 20
57 | CNC(=O)[C@H]1O[C@@H](n2cnc3c(NCc4cccc(I)c4)ncnc32)[C@@H](O)[C@H]1O | < 4.70 | > 20
58 | COc1cc2nc(N3CCN(C(=O)c4ccco4)CC3)nc(N)c2cc1OC [PRAZOSIN] | < 4.70 | > 20
59 | C/C1=C/C[C@@H](/C(C)=C/c2csc(C)n2)OC(=O)C[C@H](O)C(C)(C)C(=O)[C@H](C)[C@@H](O)[C@@H](C)CCC1 [EPOTHILONE D] | < 4.70 | > 20
60 | CC(=O)[C@@]1(O)CC[C@H]2[C@@H]3CCC4=CC(=O)CC[C@]4(C)[C@H]3CC[C@@]21C [HYDROXYPROGESTERONE] | < 4.70 | > 20
61 | CCNC(=O)NCCCOc1cccc(CN2CCCCC2)c1 [DALCOTIDINE] | < 4.70 | > 20
62 | O=C1OCCN1/N=C\c1ccc([N+](=O)[O-])o1 | < 4.70 | > 20
63 | COc1cc(N)c(Cl)cc1C(=O)NC1CCN(CCCOc2ccc(F)cc2)CC1OC (stereo unspecified) [CISAPRIDE] | < 4.70 | > 20
64 | CCC(c1ccccc1)c1c(O)c2ccccc2oc1=O (stereo unspecified) [PHENPROCOUMON] | < 4.70 | > 20
65 | Nc1ccn([C@@H]2CS[C@H](CO)O2)c(=O)n1 [LAMIVUDINE] | < 4.30 | > 50.1
66 | Oc1ccc(C2CNCCc3c2cc(O)c(O)c3Cl)cc1 (stereo unspecified) [FENOLDOPAM] | < 4.70 | > 20
67 | CC(NCCC(c1ccccc1)c1ccccc1)c1ccccc1 (stereo unspecified) [FENDILINE] | < 4.70 | > 20
68 | OC[C@@H](O)[C@H]1O[C@@H]2O[C@H](C(Cl)(Cl)Cl)O[C@@H]2[C@H]1O [CHLORALOSE] | < 4.70 | > 20
69 | C[N+]1(CCC(C(N)=O)(c2ccccc2)c2ccccc2)CCCCC1 | < 4.70 | > 20
70 | COC(=O)c1cnc2n1CCc1ccccc1C2=C1CCN(CCc2ccc(OCc3ccc4ccccc4n3)cc2)CC1 | < 4.70 | > 20
71 | Cc1ncc(-c2csc(N=C(N)N)n2)[nH]1 [ZALTIDINE] | < 4.70 | > 20
72 | CSc1ccc2c(c1)C(N1CCN(C)CC1)Cc1ccccc1S2 (stereo unspecified) [METITEPINE] | < 4.70 | > 20
73 | O=c1cc(-c2ccc(O)cc2)oc2cc(O)cc(O)c12 [APIGENIN] | < 4.70 | > 20

— ChEMBL document CHEMBL4651402, “Screening of ~5500 FDA-approved drugs and clinical candidates for anti-SARS-CoV-2 activity” (2021)
